In ChEMBL document CHEMBL1201862, “PubChem BioAssay data set” (2004):
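Five concentrations, 48 hours, 96-well plates. GI50 marks 50% less growth.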 Activity calls are given as the source filed them. No stated cut-off is given here; in the data, active = GI50 up to about 1.1 µM and inactive = higher.

How the values were obtained:
Test in all cases: NCI anticancer screen, dose series, 48 h
786-0 = tested on: 786-0
A498 = tested on: A498
BT-549 = tested on: BT-549
HCC 2998 = tested on: HCC 2998
HCT-116 = tested on: HCT-116
HCT-15 = tested on: HCT-15
HOP-92 = tested on: HOP-92
K562 = tested on: K562
LOX IMVI = tested on: LOX IMVI
NCI-H23 = tested on: NCI-H23
NCI/ADR-RES = tested on: NCI/ADR-RES
OVCAR-5 = tested on: OVCAR-5
RXF 393 = tested on: RXF 393
SK-OV-3 = tested on: SK-OV-3
SN12C = tested on: SN12C
SNB-19 = tested on: SNB-19
UACC-257 = tested on: UACC-257

| SMILES | GI50 (786-0) | GI50 (A498) | GI50 (BT-549) | GI50 (HCC 2998) | GI50 (HCT-116) | GI50 (HCT-15) | GI50 (HOP-92) | GI50 (K562) | GI50 (LOX IMVI) | GI50 (NCI-H23) | GI50 (NCI/ADR-RES) | GI50 (OVCAR-5) | GI50 (RXF 393) | GI50 (SK-OV-3) | GI50 (SN12C) | GI50 (SNB-19) | GI50 (UACC-257) |
| --- | --- | --- | --- | --- | --- | --- | --- | --- | --- | --- | --- | --- | --- | --- | --- | --- | --- |
| COc1cc2c(cc1OC)C(=O)N(c1ccc(OCCN3CCCC3)cc1)C2=O | > 100 µM (inactive) | > 100 µM (inactive) | > 100 µM (inactive) | > 100 µM (inactive) | > 100 µM (inactive) | > 100 µM | > 100 µM (inactive) | > 100 µM (inactive) | > 100 µM (inactive) | > 100 µM (inactive) | > 100 µM (inactive) | > 100 µM (inactive) | > 100 µM (inactive) | > 100 µM (inactive) | > 100 µM (inactive) | > 100 µM (inactive) | > 100 µM (inactive) |
| C=CCn1c(-c2ccc(-c3cs/c(=N\N=O)n3CC=C)cc2)cs/c1=N\N=O | 62.5 µM (inactive) | > 100 µM (inactive) | > 100 µM (inactive) | > 100 µM (inactive) | 79.1 µM (inactive) | > 100 µM | > 100 µM (inactive) | > 100 µM (inactive) | > 100 µM (inactive) | > 100 µM (inactive) | > 100 µM (inactive) | > 100 µM (inactive) | 19.1 µM (inactive) | 40.7 µM (inactive) | 86.9 µM (inactive) | > 100 µM (inactive) | > 100 µM (inactive) |
| CCOC(=O)C(C(=O)OCC)C1C=CCC2c3ccccc3COCC21 (centres undefined) | > 100 µM (inactive) | 38.7 µM (inactive) | 49 µM (inactive) | 52.5 µM (inactive) | 41.1 µM (inactive) | 40 µM | > 100 µM (inactive) | 41.9 µM (inactive) | 44.2 µM (inactive) | 43.6 µM (inactive) | 28.2 µM (inactive) | > 100 µM (inactive) | > 100 µM (inactive) | 85.5 µM (inactive) | 79.6 µM (inactive) | > 100 µM (inactive) | 30.3 µM (inactive) |
| O=C(O)CC(C(=O)O)c1ccccc1[N+](=O)[O-] (centres undefined) | > 100 µM (inactive) | > 100 µM (inactive) | > 100 µM (inactive) | > 100 µM (inactive) | > 100 µM (inactive) | > 100 µM | > 100 µM (inactive) | > 100 µM (inactive) | > 100 µM (inactive) | > 100 µM (inactive) | > 100 µM (inactive) | > 100 µM (inactive) | > 100 µM (inactive) | > 100 µM (inactive) | > 100 µM (inactive) | > 100 µM (inactive) | > 100 µM (inactive) |
| C=C1CC2(CC(c3ccccc3Cl)OC(c3ccccc3Cl)C2)OC1=O (centres undefined) | 2 µM (inactive) | 9.73 µM (inactive) | 2.02 µM (inactive) | 3.52 µM (inactive) | 1.76 µM (inactive) | 2.56 µM | 1.87 µM (inactive) | 2.26 µM (inactive) | 1.38 µM (inactive) | 3.83 µM (inactive) | 3.57 µM (inactive) | 8.73 µM (inactive) | 2.12 µM (inactive) | 6.87 µM (inactive) | 2.37 µM (inactive) | 15.2 µM (inactive) | 2.08 µM (inactive) |
| CN(CCCCN1CCCC1)CCCCN(C)C(=O)Cc1ccc(Cl)c(Cl)c1 | 12.3 µM (inactive) | 17.1 µM (inactive) | 18.5 µM (inactive) | 5.09 µM (inactive) | 14.3 µM (inactive) | 21.1 µM | 2.88 µM (inactive) | 2.91 µM (inactive) | 10.6 µM (inactive) | 17.9 µM (inactive) | > 100 µM (inactive) | 21.9 µM (inactive) | 11.7 µM (inactive) | 23.6 µM (inactive) | 19.1 µM (inactive) | 19.3 µM (inactive) | 2.52 µM (inactive) |
| O=C(NO)NCCCl | > 100 µM (inactive) | 49.5 µM (inactive) | > 100 µM (inactive) | > 100 µM (inactive) | > 100 µM (inactive) | > 100 µM | > 100 µM (inactive) | > 100 µM (inactive) | > 100 µM (inactive) | > 100 µM (inactive) | > 100 µM (inactive) | > 100 µM (inactive) | > 100 µM (inactive) | > 100 µM (inactive) | > 100 µM (inactive) | > 100 µM (inactive) | > 100 µM (inactive) |
| CC(=O)Nc1ccc2c3c(cc(O)c2c1)N(C(=O)CCCCCCC(=O)N1CC(CCl)c2c1cc(O)c1cc(NC(C)=O)ccc21)CC3CCl (centres undefined) | < 0.01 µM (active) | < 0.01 µM (active) | < 0.01 µM (active) | < 0.01 µM (active) | < 0.01 µM (active) | 0.231 µM | < 0.0117 µM (active) | < 0.0125 µM (active) | < 0.01 µM (active) | < 0.01 µM (active) | 0.673 µM (active) | 0.0325 µM (active) | < 0.01 µM (active) | 0.017 µM (active) | < 0.01 µM (active) | < 0.01 µM (active) | 0.0104 µM (active) |
| COc1ccc(C(C)NNC(=O)c2ccncc2)cc1OC (centres undefined) | > 100 µM (inactive) | > 100 µM (inactive) | > 100 µM (inactive) | > 100 µM (inactive) | > 100 µM (inactive) | > 100 µM | > 100 µM (inactive) | > 100 µM (inactive) | > 100 µM (inactive) | > 100 µM (inactive) | > 100 µM (inactive) | > 100 µM (inactive) | > 100 µM (inactive) | 26.4 µM (inactive) | > 100 µM (inactive) | > 100 µM (inactive) | > 100 µM (inactive) |
| N#Cc1cccc(Nc2ccccc2SSc2ccccc2Nc2cccc(C#N)c2)c1 | 3.91 µM (inactive) | 9.89 µM (inactive) | > 10 µM (inactive) | 16.6 µM (inactive) | 9.06 µM (inactive) | 10.4 µM | 7.89 µM (inactive) | 5.12 µM (inactive) | 2.73 µM (inactive) | 11.7 µM (inactive) | 8.79 µM (inactive) | 17.5 µM (inactive) | > 10 µM (inactive) | 13.5 µM (inactive) | 7.59 µM (inactive) | 7.76 µM (inactive) | 13.6 µM (inactive) |
| COC(=O)C1=C(C(=O)OC)N(c2ccc(OC)cc2[N+](=O)[O-])C(c2ccc(C)cc2)=CC1c1ccc(OC)cc1OC (centres undefined) | 11.9 µM (inactive) | 16 µM (inactive) | 11.3 µM (inactive) | 8.28 µM (inactive) | 10.7 µM (inactive) | 4.65 µM | 47.2 µM (inactive) | 3.16 µM (inactive) | 2.36 µM (inactive) | 22.4 µM (inactive) | 22.9 µM (inactive) | 34.5 µM (inactive) | 5.25 µM (inactive) | 25.8 µM (inactive) | 13.6 µM (inactive) | 34.7 µM (inactive) | 23.1 µM (inactive) |
| Cc1nc(N)nc(S)c1CCC(=O)O | > 100 µM (inactive) | > 100 µM (inactive) | > 100 µM (inactive) | > 100 µM (inactive) | > 100 µM (inactive) | > 100 µM | > 100 µM (inactive) | > 100 µM (inactive) | > 100 µM (inactive) | > 100 µM (inactive) | > 100 µM (inactive) | > 100 µM (inactive) | > 100 µM (inactive) | > 100 µM (inactive) | > 100 µM (inactive) | > 100 µM (inactive) | > 100 µM (inactive) |
| CCCN1CC=C(c2cc(C(=O)OCC)[nH]c2-c2cc(C)no2)C1=O | > 100 µM (inactive) | > 100 µM (inactive) | > 100 µM (inactive) | > 100 µM (inactive) | > 100 µM (inactive) | > 100 µM | > 100 µM (inactive) | > 100 µM (inactive) | > 100 µM (inactive) | > 100 µM (inactive) | > 100 µM (inactive) | > 100 µM (inactive) | > 100 µM (inactive) | > 100 µM (inactive) | > 100 µM (inactive) | > 100 µM (inactive) | > 100 µM (inactive) |
| c1ccc2c(c1)nc1n2C2CCC(C2)N1 (centres undefined) | > 10 µM (inactive) | > 10 µM (inactive) | > 10 µM (inactive) | > 10 µM (inactive) | > 10 µM (inactive) | > 10 µM | > 10 µM (inactive) | > 10 µM (inactive) | > 10 µM (inactive) | > 10 µM (inactive) | > 10 µM (inactive) | > 10 µM (inactive) | > 10 µM (inactive) | > 10 µM (inactive) | > 10 µM (inactive) | > 10 µM (inactive) | > 10 µM (inactive) |
| O=[N+]([O-])c1ccc2c(c1)Nc1c3ccccc3nc3cccc-2c13 | 1.02 µM (active) | 34.5 µM (inactive) | 16.3 µM (inactive) | 0.183 µM (active) | 5.38 µM (inactive) | 3.56 µM | 4.73 µM (inactive) | 2.1 µM (inactive) | 1.93 µM (inactive) | 4.85 µM (inactive) | 2.82 µM (inactive) | 6.93 µM (inactive) | 8.39 µM (inactive) | 2.04 µM (inactive) | 11.3 µM (inactive) | 17.3 µM (inactive) | 16.9 µM (inactive) |
| CCOC(=O)c1c(C)[nH]c2c1c(CN(C)C)c(O)c1nc(C)c(C)nc12 | 16.1 µM (inactive) | 15.2 µM (inactive) | 26.2 µM (inactive) | 21.4 µM (inactive) | 17.2 µM (inactive) | 26.4 µM | 31.8 µM (inactive) | 21.3 µM (inactive) | 19.4 µM (inactive) | 27.8 µM (inactive) | 24.2 µM (inactive) | 28.4 µM (inactive) | 20.8 µM (inactive) | 32.3 µM (inactive) | 12.6 µM (inactive) | 31.1 µM (inactive) | 23.5 µM (inactive) |
| Cc1c(N2CCCC2)cc2c(c1NC(=O)c1ccccc1Cl)C(C)(C)CC2(C)C | 14.1 µM (inactive) | 15 µM (inactive) | 17.8 µM (inactive) | 13.1 µM (inactive) | 10.6 µM (inactive) | 14.6 µM | 11.5 µM (inactive) | 35 µM (inactive) | 13.4 µM (inactive) | 14.7 µM (inactive) | 13.4 µM (inactive) | 18 µM (inactive) | 14.3 µM (inactive) | 13.1 µM (inactive) | 16.2 µM (inactive) | 15.2 µM (inactive) | 11.7 µM (inactive) |
